Earlier results, collected in patent US6559183B1, “Nano-emulsion of 5-aminolevulinic acid” (ASAT AG Applied Science & Technology, priority 1998, dated 2003).

Details: high concentrations required for clinical application, neutral to basic pH range, 25 h

stability in aqueous solutions: unstable
Structure (SMILES): NCC(=O)CCC(=O)O [aminolevulinic acid, 5-aminolevulinic acid]
